The target of one experiment is T1, BRAF V600E (Homo sapiens, UniProt P15056, V600E).
T1 construct: expressed in transfected cells
The experiment can be described thus: Cellular assay of target protein degradation, T-Rex 293 cells stably transfected with HA-BRAF_V600E (HA immunofluorescence, high content imaging). It counts as cell-based. In outline: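 Read-out is anti-HA immunofluorescence quantified by high-content imaging, giving half-maximal degradation concentration (DC50) and maximum degradation (Dmax, percent of control). Cells expressed the construct under 1 ng/mL doxycycline and received compound (1 μM to 0.1 nM final, 0.1% DMSO) for 24 h at 37 °C.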

The target of a further experiment is T2, BRAF G466V (Homo sapiens, UniProt P15056, G466V).
T2 construct: expressed in transfected cells
T2 sequence (P15056 whole entry G466V): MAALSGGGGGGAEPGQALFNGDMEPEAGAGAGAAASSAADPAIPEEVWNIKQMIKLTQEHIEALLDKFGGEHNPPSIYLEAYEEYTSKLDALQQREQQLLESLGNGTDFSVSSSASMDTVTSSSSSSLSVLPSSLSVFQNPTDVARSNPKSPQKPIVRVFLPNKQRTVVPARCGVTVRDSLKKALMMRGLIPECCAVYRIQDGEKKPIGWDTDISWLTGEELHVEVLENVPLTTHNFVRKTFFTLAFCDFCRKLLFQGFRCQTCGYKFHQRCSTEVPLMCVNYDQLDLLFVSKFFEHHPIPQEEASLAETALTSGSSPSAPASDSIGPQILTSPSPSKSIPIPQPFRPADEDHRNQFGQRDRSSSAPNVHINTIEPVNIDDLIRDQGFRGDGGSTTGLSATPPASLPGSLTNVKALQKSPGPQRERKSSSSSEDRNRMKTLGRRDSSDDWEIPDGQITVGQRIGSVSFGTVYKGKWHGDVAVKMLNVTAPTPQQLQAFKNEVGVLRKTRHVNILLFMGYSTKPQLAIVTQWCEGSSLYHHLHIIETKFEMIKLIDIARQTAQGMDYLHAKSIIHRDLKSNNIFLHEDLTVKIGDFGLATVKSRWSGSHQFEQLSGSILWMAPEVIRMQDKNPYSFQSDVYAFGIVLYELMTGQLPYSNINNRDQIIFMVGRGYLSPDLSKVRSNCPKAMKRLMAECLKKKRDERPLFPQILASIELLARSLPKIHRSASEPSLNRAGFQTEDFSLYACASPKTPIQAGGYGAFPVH
The experiment can be described thus: Cellular assay of target protein degradation, T-Rex 293 cells stably transfected with HA-BRAF G466V (HA immunofluorescence, high content imaging). It counts as cell-based. The essentials: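 First, stably transfected T-Rex 293 cells were plated with 0.75 ng/mL doxycycline and grown for 24 hours. Next, compound (final 30 nM to 3 pM, 0.1% DMSO) was added for another 24 hours at 37° C. Finally, cells were fixed, stained for HA and imaged.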

[1] abbreviates: half maximal degradation, T-Rex 293 HA-BRAF V600E; read-out: BRaf V600E DC50.
[2] abbreviates: maximum degradation observed, T-Rex 293 HA-BRAF V600E.
Where [3] appears, read: half maximal degradation, T-Rex 293 HA-BRAF G466V; read-out: BRaf G466V DC50.
Setting [4] is: maximum degradation observed, T-Rex 293 HA-BRAF G466V.

Each structure is given as a SMILES string. Where two headings read alike, the source gives them in different places.

T1 sequence (P15056 whole entry V600E): as the sequence (P15056 whole entry G466V) above, with V466G, V600E counted along it

Regarding `O=C1CCC(N2Cc3cc(N4CCN(C[C@H](O)Cc5ccc(-c6cnc7[nH]cc(C(=O)c8c(F)ccc(NS(=O)(=O)N9CC[C@@H](F)C9)c8F)c7c6)cc5)CC4)ccc3C2=O)C(=O)N1` (stereo partly drawn) [Compound 90, (3R)—N-[3-[5-[4-[(2R)-3-[4-[2-(2,6-dioxo-3-piperidyl)-1-oxo-isoindolin-5-yl]piperazin-1-yl]-2-hydroxy-propyl]phenyl]-1H-pyrrolo[2,3-b]pyridine-3-carbonyl]-2,4-difluoro-phenyl]-3-fluoro-pyrrolidine-1-sulfonamide], the 50% degradation concentration (DC50) (usually the concentration at which degradation of the target reaches its halfway point) on BRAF V600E (setting [1]) is 5 to 50 nM; on BRAF G466V (setting [3]), 1 to 10 nM. In addition, the Dmax on BRAF V600E (setting [2]) and on BRAF G466V (setting [4]) was 35 to 70% each time.
Take `O=C1CCC(N2Cc3cc(N4CCN(CC5CN(c6ncc(-c7cnc8[nH]cc(C(=O)c9c(F)ccc(NS(=O)(=O)N%10CC[C@@H](F)C%10)c9F)c8c7)cn6)C5)CC4)ccc3C2=O)C(=O)N1` (stereo partly drawn) [Compound 91, (3R)-N-[3-(5-{2-[3-({4-[2-(2,6-dioxopiperidin-3-yl)-1-oxo-2,3-dihydro-1H-isoindol-5-yl]piperazin-1-yl}methyl)azetidin-1-yl]pyrimidin-5-yl}-1H-pyrrolo[2,3-b]pyridine-3-carbonyl)-2,4-difluorophenyl]-3-fluoropyrrolidine-1-sulfonamide]: the figures for the DC50 at BRAF V600E (setting [1]) and at BRAF G466V (setting [3]) were 5 to 50 nM and 1 to 10 nM, respectively. In addition, the figures for the Dmax at BRAF V600E (setting [2]) and on BRAF G466V (setting [4]) were 35 to 70% and over 70%, respectively.
Taken in the same sequence, the figures for `O=C1CCC(N2Cc3cc(N4CCC(CN5CC6(CCN(c7ccc(-c8cnc9[nH]cc(C(=O)c%10c(F)ccc(NS(=O)(=O)N%11CC[C@@H](F)C%11)c%10F)c9c8)cn7)C6)C5)CC4)ccc3C2=O)C(=O)N1` (stereo partly drawn) [Compound 92, (3R)-N-[3-(5-{6-[2-({1-[2-(2,6-dioxopiperidin-3-yl)-1-oxo-2,3-dihydro-1H-isoindol-5-yl]piperidin-4-yl}methyl)-2,6-diazaspiro[3.4]octan-6-yl]pyridin-3-yl}-1H-pyrrolo[2,3-b]pyridine-3-carbonyl)-2,4-difluorophenyl]-3-fluoropyrrolidine-1-sulfonamide] were under 5 nM, 1 to 10 nM, 35 to 70% and over 70%.
On the same counts, the results for `O=C1CCC(N2Cc3cc(N4CCC(CN5CC6(CCN(c7ncc(-c8cnc9[nH]cc(C(=O)c%10c(F)ccc(NS(=O)(=O)N%11CC[C@@H](F)C%11)c%10F)c9c8)cn7)C6)C5)CC4)ccc3C2=O)C(=O)N1` (stereo partly drawn) [Compound 93, (3R)-N-[3-(5-{2-[2-({1-[2-(2,6-dioxopiperidin-3-yl)-1-oxo-2,3-dihydro-1H-isoindol-5-yl]piperidin-4-yl}lmethyl)-2,6-diazaspiro[3.4]octan-6-yl]pyrimidin-5-yl}-1H-pyrrolo[2,3-b]pyridine-3-carbonyl)-2,4-difluorophenyl]-3-fluoropyrrolidine-1-sulfonamide] are under 5 nM, 1 to 10 nM, 35 to 70% and over 70%.
On to `O=C1CCC(N2Cc3cc(C4CCN(CC5CCN(c6c(F)cc(-c7cnc8[nH]cc(C(=O)c9c(F)ccc(NS(=O)(=O)N%10CC[C@@H](F)C%10)c9F)c8c7)cc6F)CC5)CC4)ccc3C2=O)C(=O)N1` (stereo partly drawn) [Compound 94, (3R)-N-[3-(5-{4-[4-({4-[2-(2,6-dioxopiperidin-3-yl)-1-oxo-2,3-dihydro-1H-isoindol-5-yl]piperidin-1-yl}methyl)piperidin-1-yl]-3,5-difluorophenyl}-1H-pyrrolo[2,3-b]pyridine-3-carbonyl)-2,4-difluorophenyl]-3-fluoropyrrolidine-1-sulfonamide], for which the 50% degradation concentration (DC50) on BRAF V600E (setting [1]) lay within 5 to 50 nM; on BRAF G466V (setting [3]), 1 to 10 nM. Also, the values for the maximal degradation (Dmax) on BRAF V600E (setting [2]) and on BRAF G466V (setting [4]) were 35 to 70% and over 70%, respectively.
For the molecule `O=C1CCC(N2Cc3cc(N4CCC(CN5CCC6(CCN(c7ccc(-c8cnc9[nH]cc(C(=O)c%10c(F)ccc(NS(=O)(=O)N%11CC[C@@H](F)C%11)c%10F)c9c8)cn7)CC6)C5)CC4)ccc3C2=O)C(=O)N1` (stereo partly drawn) [Compound 95, (3R)-N-[3-(5-{6-[2-({1-[2-(2,6-dioxopiperidin-3-yl)-1-oxo-2,3-dihydro-1H-isoindol-5-yl]piperidin-4-yl}methyl)-2,8-diazaspiro[4.5]decan-8-yl]pyridin-3-yl}-1H-pyrrolo[2,3-b]pyridine-3-carbonyl)-2,4-difluorophenyl]-3-fluoropyrrolidine-1-sulfonamide], the half-maximal degradation concentration (DC50) is over 500 nM on BRAF V600E (setting [1]) and under 1 nM on BRAF G466V (setting [3]). Besides, the Dmax (commonly the largest share of the target that was removed) at BRAF G466V (setting [4]) fell in the range of 35 to 70%.
As for `CC(C)(C1CCN(c2ccc(-c3cnc4[nH]cc(C(=O)c5c(F)ccc(NS(=O)(=O)N6CC[C@@H](F)C6)c5F)c4c3)cc2)CC1)N1CCN(c2ccc3c(c2)CN(C2CCC(=O)NC2=O)C3=O)CC1` (stereo partly drawn) [Compound 97, (3R)-N-[3-(5-{4-[4-(2-{4-[2-(2,6-dioxopiperidin-3-yl)-1-oxo-2,3-dihydro-1H-isoindol-5-yl]piperazin-1-yl}propan-2-yl)piperidin-1-yl]phenyl}-1H-pyrrolo[2,3-b]pyridine-3-carbonyl)-2,4-difluorophenyl]-3-fluoropyrrolidine-1-sulfonamide], the figures for the Dmax at BRAF V600E (setting [2]) and on BRAF G466V (setting [4]) were 35 to 70% and over 70%, respectively. In addition, the 50% degradation concentration (DC50) was in the range of 5 to 50 nM at BRAF V600E (read-out: BRaf V600E DC50; half maximal degradation, T-Rex 293 HA-BRAF V600E) and 1 to 10 nM at BRAF G466V (read-out: BRaf G466V DC50; half maximal degradation, T-Rex 293 HA-BRAF G466V).
For `O=C1CCC(N2Cc3cc(N4CCN(C[C@@H](O)Cc5ccc(-c6cnc7[nH]cc(C(=O)c8c(F)ccc(NS(=O)(=O)N9CC[C@@H](F)C9)c8F)c7c6)cc5)CC4)ccc3C2=O)C(=O)N1` (stereo partly drawn) [Compound 98, (3R)-N-[3-(5-{4-[(2S)-3-{4-[2-(2,6-dioxopiperidin-3-yl)-1-oxo-2,3-dihydro-1H-isoindol-5-yl]piperazin-1-yl}-2-hydroxypropyl]phenyl}-1H-pyrrolo[2,3-b]pyridine-3-carbonyl)-2,4-difluorophenyl]-3-fluoropyrrolidine-1-sulfonamide], the DC50 on BRAF V600E (setting [1]) was in the range of 5 to 50 nM; on BRAF G466V (setting [3]), 1 to 10 nM. Further, the maximal degradation (Dmax) at BRAF V600E (setting [2]) was 35 to 70%; on BRAF G466V (setting [4]) it was over 70%.
On the same counts, the results for `O=C1CC[C@H](N2Cc3cc(C4CN(CC5CC6(C5)CN(c5ccc(-c7cnc8[nH]cc(C(=O)c9c(F)ccc(NS(=O)(=O)N%10CC[C@@H](F)C%10)c9F)c8c7)cc5)C6)C4)ccc3C2=O)C(=O)N1` [Compound 99, (3R)-N-{3-[5-(4-{6-[(3-{2-[(3S)-2,6-dioxopiperidin-3-yl]-1-oxo-2,3-dihydro-1H-isoindol-5-yl}azetidin-1-yl)methyl]-2-azaspiro[3.3]heptan-2-yl}phenyl)-1H-pyrrolo[2,3-b]pyridine-3-carbonyl]-2,4-difluorophenyl}-3-fluoropyrrolidine-1-sulfonamide] are 5 to 50 nM, 1 to 10 nM, 35 to 70% and over 70%.
Taken in the same sequence, the figures for `O=C1CC[C@@H](N2Cc3cc(C4CN(CC5CC6(C5)CN(c5ccc(-c7cnc8[nH]cc(C(=O)c9c(F)ccc(NS(=O)(=O)N%10CC[C@@H](F)C%10)c9F)c8c7)cc5)C6)C4)ccc3C2=O)C(=O)N1` [Compound 100, (3R)-N-{3-[5-(4-{6-[(3-{2-[(3R)-2,6-dioxopiperidin-3-yl]-1-oxo-2,3-dihydro-1H-isoindol-5-yl}azetidin-1-yl)methyl]-2-azaspiro[3.3]heptan-2-yl}phenyl)-1H-pyrrolo[2,3-b]pyridine-3-carbonyl]-2,4-difluorophenyl}-3-fluoropyrrolidine-1-sulfonamide] were 5 to 50 nM, 1 to 10 nM, 35 to 70% and over 70%.
Taken in the same sequence, the figures for `O=C1CCC(N2Cc3cc(N4CCN(CC5CN(c6ccc(-c7cnc8[nH]cc(C(=O)c9c(F)ccc(NS(=O)(=O)N%10CC[C@@H](F)C%10)c9F)c8c7)cn6)C5)CC4)ccc3C2=O)C(=O)N1` (stereo partly drawn) [Compound 101, (3R)-N-[3-(5-{6-[3-({4-[2-(2,6-dioxopiperidin-3-yl)-1-oxo-2,3-dihydro-1H-isoindol-5-yl]piperazin-1-yl}methyl)azetidin-1-yl]pyridin-3-yl}-1H-pyrrolo[2,3-b]pyridine-3-carbonyl)-2,4-difluorophenyl]-3-fluoropyrrolidine-1-sulfonamide] were 5 to 50 nM, 1 to 10 nM, 35 to 70% and over 70%.
As for `COc1cc(CN2CCN(c3ccc(-c4cnc5[nH]cc(C(=O)c6c(F)ccc(NS(=O)(=O)N7CC[C@@H](F)C7)c6F)c5c4)cc3)CC2)cc2c1C(=O)N(C1CCC(=O)NC1=O)C2` (stereo partly drawn) [Compound 102, (3R)-N-(3-{5-[4-(4-{[2-(2,6-dioxopiperidin-3-yl)-7-methoxy-1-oxo-2,3-dihydro-1H-isoindol-5-yl]methyl}piperazin-1-yl)phenyl]-1H-pyrrolo[2,3-b]pyridine-3-carbonyl}-2,4-difluorophenyl)-3-fluoropyrrolidine-1-sulfonamide], the DC50 on BRAF V600E (setting [1]) is over 500 nM; at BRAF G466V (setting [3]), 1 to 10 nM. In addition, the Dmax on BRAF V600E (setting [2]) was over 70%; on BRAF G466V (setting [4]), 35 to 70%.

The record behind these values is patent US12180193B2, “Accelerating fibrosarcoma protein degrading compounds and associated methods of use” (Arvinas Operations, Inc., priority 2020, dated 2024).
